Results as given in BindingDB's records for doi:10.1016/j.bmcl.2007.05.064 (Sungkyunkwan University, 2007).

Target: cGMP-specific 3',5'-cyclic phosphodiesterase (Homo sapiens, UniProt O76074)
Assay: Inhibition of PDE5

- IC50: 426 nM
Structure (SMILES): CCCc1nn(C)c2c(=O)[nH]c(-c3cc(S(=O)(=O)N4CCN(C)CC4)cc4c3OCO4)nc12
